Patent US5043268A, “Substrates and inhibitors for prenyl cysteine methyltransferase enzymes” (The Trustees of Princeton University, priority 1990, dated 1991)

Target: prenyl cysteine methyltransferase (Bos taurus, UniProt A0AAA9SD88)
Assay: Prenyl cysteine methyltransferase assay (3H-methyl transfer from S-adenosylmethionine to AFC, vapor-phase equilibrium)
Format: biochemical
Details: 5.0 μM (3H-methyl)-S-adenosylmethionine, 83,000×g pellet of bovine brain, 37° C., pH 7.9
Description: To a putative source of prenyl cysteine methyl transferase enzyme is added 50 μM of N-acetyl-S-farnesyl cysteine ("AFC") and 5.0 μM (^3 H-methyl)-S-adenosylmethionine (specific activity 16,000 cpm/pmol) in 100 mM tris-HCl, 1 mM EDTA, 1 mM DTT, pH 7.9 in a final volume of 150 μL. After heating the mixture at 37° C. for 5 to 25 minutes, 25 μL of the mixture is removed and added to 250 μL of heptane. The mixture is immediately vortexed to extract N-acetyl-S-farnesyl cysteine methyl ester into the organic phase. The mixture then is centrifuged for 30 seconds, and placed in a dry ice/acetone bath to quench the reaction. The heptane layer (200 μL) is removed and added to a 1.5 mL capless Eppendorf microcentrifuge tube. The heptane is evaporated in a Speedvac, and 25 μL of 1M sodium hydroxide is added to the remaining residue. The ^3 H-methanol produced from the hydrolysis of the ^3 H-methylesters is assayed by the vapor-phase equilibrium procedure as described in Stock, J. B., et al. (1984) Methods Enzymology, 106, 310-321 which is incorporated herein by reference.
A sample of 0.003 grams of 83,000×g. pellet from homogenized bovine brain after previous removal of the 14,000×g. pellet was subjected to the foregoing assay.

Chain of prenyl cysteine methyltransferase (A0AAA9SD88 1-284): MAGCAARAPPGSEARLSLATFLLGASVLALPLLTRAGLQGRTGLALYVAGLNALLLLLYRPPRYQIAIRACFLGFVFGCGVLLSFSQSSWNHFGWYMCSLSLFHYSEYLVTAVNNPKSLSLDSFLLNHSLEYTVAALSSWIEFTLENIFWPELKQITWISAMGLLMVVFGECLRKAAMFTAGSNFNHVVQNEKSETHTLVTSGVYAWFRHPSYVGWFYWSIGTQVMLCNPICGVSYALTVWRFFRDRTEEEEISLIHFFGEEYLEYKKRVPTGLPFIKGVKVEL

CC(=O)N[C@@H](CSC/C=C(\C)CC/C=C(\C)CCC=C(C)C)C(=O)O [AFC, N-Acetyl, S-trans,trans-farnesyl-L-cysteine]
cpm (w/50 μM AFC) (5 min): 199.5 cpm | cpm (w/50 μM AFC) (10 min): 343.5 cpm | cpm (w/50 μM AFC) (15 min): 393.5 cpm | cpm (w/50 μM AFC) (20 min): 543.0 cpm | cpm (w/50 μM AFC) (25 min): 616.0 cpm
